Values of other authors, collected in patent US10010648B2, “Transdermal delivery system” (Edixomed Limited, priority 2013, dated 2018).

Key:
[1] = healthy 70 kg-adult

C=CC(=O)O [acrylic acid]
pKa: 4.3 to 4.4

COC(=O)[C@H]1[C@@H](OC(=O)c2ccccc2)C[C@@H]2CC[C@H]1N2C [cocaine]
generally accepted safe dosage for topical anaesthesia [1]: 200 mg

CCN(CC)CC(=O)Nc1c(C)cccc1C [lidocaine]
generally accepted safe dosage for topical anaesthesia [1]: 750 mg

CCCCNc1ccc(C(=O)OCCN(C)C)cc1 [tetracaine]
generally accepted safe dosage for topical anaesthesia [1]: 50 mg
